Tests used:
Assay type in all cases: cell-based
HEK293 [1] = experiment: Selectivity ratio of IC50 for PGD2 receptor in human platelets to IC50 for human EP3 receptor expressed in HEK293 cells by cAMP accumulation assay
HEK293 [2] = experiment: Selectivity ratio of IC50 for PGD2 receptor in human platelets to IC50 for human EP4 receptor expressed in HEK293 cells by cAMP accumulation assay
HEK293 [3] = experiment: Selectivity ratio of IC50 for PGD2 receptor in human platelets to IC50 for human EP1 receptor expressed in HEK293 cells by cAMP accumulation assay
HEK293 [4] = experiment: Selectivity ratio of IC50 for PGD2 receptor in human platelets to IC50 for human EP2 receptor expressed in HEK293 cells by cAMP accumulation assay
HEK293 [5] = experiment: Selectivity ratio of IC50 for PGD2 receptor in human platelets to IC50 for human TP receptor expressed in HEK293 cells by cAMP accumulation assay
HEK293 [6] = experiment: Selectivity ratio of IC50 for PGD2 receptor in human platelets to IC50 for human IP receptor expressed in HEK293 cells by cAMP accumulation assay
HEK293 [7] = experiment: Selectivity ratio of IC50 for PGD2 receptor in human platelets to IC50 for human FP receptor expressed in HEK293 cells by cAMP accumulation assay

Measured: Ratio IC50

CC(C)Oc1ccc(S(=O)(=O)N2CCN(c3ccc(-c4nnco4)c(OCC(=O)O)c3)CC2)cc1
> 20: all assays above

CC(C)Oc1ccc(S(=O)(=O)N2CCN(c3ccc(-c4ncco4)c(OCC(=O)O)c3)CC2)cn1
> 20: all assays above

CC(C)Oc1ccc(S(=O)(=O)N2CCN(c3ccc(-c4nncs4)c(OCC(=O)O)c3)CC2)cc1
> 20: all assays above

Cc1nnc(-c2ccc(N3CCN(S(=O)(=O)c4ccc(OC(C)C)cc4)CC3)cc2OCC(=O)O)s1
> 20: all assays above

CC(C)Oc1ccc(S(=O)(=O)N2CCN(c3cc(Cl)cc(OCC(=O)O)c3)CC2)cc1
> 20: all assays above

COc1cccc(OC2CCN(S(=O)(=O)c3ccc(OC(C)C)cc3)CC2)c1/C=C/C(=O)O
> 20: all assays above

CC(C)Oc1ccc(S(=O)(=O)N2CCC(Oc3ccc(Cl)cc3CCC(=O)O)CC2)cc1
> 20: all assays above

CC(C)Oc1ccc(S(=O)(=O)N2CCN(c3ccc([N+](=O)[O-])c(NCC(=O)O)c3)CC2)cc1
> 20: all assays above

CC(C)Oc1ccc(S(=O)(=O)N2CCN(c3ccc(-c4cocn4)c(OCC(=O)O)c3)CC2)cc1
> 20: all assays above

CC(=O)c1ccc(N2CCN(S(=O)(=O)c3ccc(OC(C)C)cc3)CC2)cc1OCC(=O)O
> 20: all assays above

CC(C)Oc1ccc(S(=O)(=O)N2CCN(c3ccc(C(=O)Nc4cc(C5CC5)n[nH]4)c(OCC(=O)O)c3)CC2)cc1
> 20: all assays above

CC(C)Oc1ccc(S(=O)(=O)N2CCN(c3cc(F)cc(OCC(=O)O)c3)CC2)cc1
> 20: all assays above

CC(C)Oc1ccc(S(=O)(=O)N2CCN(c3ccc(C(=O)NCC4CC4)c(OCC(=O)O)c3)CC2)cc1
> 20: all assays above

CC(C)Oc1ccc(S(=O)(=O)N2CCN(c3ccc(-c4ccco4)c(OCC(=O)O)c3)CC2)cc1
> 20: all assays above

CC(C)Oc1ccc(S(=O)(=O)N2CCN(c3ccc(C(=O)Nc4ccn(C)n4)c(OCC(=O)O)c3)CC2)cc1
> 20: all assays above

Cc1cc(OCC(=O)O)cc(N2CCN(S(=O)(=O)c3ccc(OC(C)C)cc3)CC2)c1
> 20: all assays above

COCC#Cc1cc(OCC(=O)O)cc(N2CCN(S(=O)(=O)c3ccc(OC(C)C)cc3)CC2)c1
> 20: all assays above

CC(C)Oc1ccc(S(=O)(=O)N2CCN(c3ccc(-c4ccccc4)c(OCC(=O)O)c3)CC2)cc1
> 20: all assays above

Cc1ccc(N2CCN(S(=O)(=O)c3ccc(OC(C)C)cc3)CC2)cc1OCC(=O)O
> 20: all assays above

From ChEMBL document CHEMBL3880428, “Sulfonamide derivative having PGD2 receptor antagonistic activity” (2012)
